Test results as given in patent US6143739A, “Basic proline-amide derivatives of GE 2270 and GE 2270-like antibiotics” (Biosearch Italia S.p.A., priority 1995, dated 2000).

Assays:
Test in all cases: MIC by microbroth dilution
[1] = system: Staphylococcus aureus L165; format: cell-based; conditions: 0.01% (w/v) BSA, 10^4 CFU/ml, read after 18-24 h, 37° C., Iso-Sensitest broth
Experimental: (§1) The minimal inhibitory concentration (MIC) has been determined by microbroth dilution methodology, in the presence of 0.01% (w/v) of bovine serum albumin (BSA). BSA is added to the diluent to avoid possible adherence of the compounds of the invention to the plastic surface of the microtiter wells, as disclosed also by B. Goldstein et al., Antimicrobial Agents and Chemotherapy, 37 (1993), 741-745.
(§2) Inocula were 10^4 CFU/ml, except for Propionibacterium acnes and Bacteroides fragilis (10^5 CFU/ml).
(§3) MICs were read after 18-24 h, except for Haemophilus influenzae, P. acnes, B. fragilis (48 h).
(§4) All microorganisms were incubated at 37° C.; H. influenzae in a 5% CO2 atmosphere, anaerobes in a N2 --CO2 --H2 (80:10:10) mixture; other organisms in air.
(§5) The growth media are: Oxoid Iso-Sensitest broth for staphylococci and Enterococcus faecalis); Difco Todd Hewitt broth for streptococci; Difco brain heart infusion broth+1% Difco Supplement C for H. influenzae; Difco Wilkins-Chalgren broth for anaerobes.

Strept. agalactiae L310 = format: cell-based; conditions: 0.01% (w/v) BSA, 10^4 CFU/ml, read after 18-24 h, 37° C., Todd Hewitt broth
Experimental: as §1, §2, §3, §4, §5

Strept. sanguis L1721 = format: cell-based; conditions: 0.01% (w/v) BSA, 10^4 CFU/ml, read after 18-24 h, 37° C., Todd Hewitt broth
Experimental: as §1, §2, §3, §4, §5

[2] = system: Streptococcus pyogenes L49; format: cell-based; conditions: 0.01% (w/v) BSA, 10^4 CFU/ml, read after 18-24 h, 37° C., Todd Hewitt broth
Experimental: as §1, §2, §3, §4, §5

Strept. pneumoniae L44 = format: cell-based; conditions: 0.01% (w/v) BSA, 10^4 CFU/ml, read after 18-24 h, 37° C., Todd Hewitt broth
Experimental: BSA is added to the diluent to avoid possible adherence of the compounds of the invention to the plastic surface of the microtiter wells, as disclosed also by B. Goldstein et al., Antimicrobial Agents and Chemotherapy, 37 (1993), 741-745. Inocula were 10^4 CFU/ml, except for Propionibacterium acnes and Bacteroides fragilis (10^5 CFU/ml). MICs were read after 18-24 h, except for Haemophilus influenzae, P. acnes, B. fragilis (48 h). All microorganisms were incubated at 37° C.; H. influenzae in a 5% CO2 atmosphere, anaerobes in a N2 --CO2 --H2 (80:10:10) mixture; other organisms in air. The growth media are: Oxoid Iso-Sensitest broth for staphylococci and Enterococcus faecalis); Difco Todd Hewitt broth for streptococci; Difco brain heart infusion broth+1% Difco Supplement C for H. influenzae; Difco Wilkins-Chalgren broth for anaerobes.

[3] = system: Haemoph. influenzae ATCC 19418 L970; format: cell-based, Haemophilus influenzae; conditions: 0.01% (w/v) BSA, 10^4 CFU/ml, read after 48 h, 37° C., 5% CO2, brain heart infusion broth+1% Supplement C
Experimental: as §1, §2, §3, §4, §5

SMILES	MIC of the compounds, Staphylococcus aureus L165 [1] [µg/mL]	MIC of the compounds, Strept. agalactiae L310 (Strept. agalactiae L310) [µg/mL]	MIC of the compounds, Strept. sanguis L1721 (Strept. sanguis L1721) [µg/mL]	MIC of the compounds, Streptococcus pyogenes L49 [2] [µg/mL]	MIC of the compounds, Strept. pneumoniae L44 (Strept. pneumoniae L44) [µg/mL]	MIC of the compounds, Haemoph. influenzae ATCC 19418 L970 [3] [µg/mL]
CNC(=O)CC1NC(=O)c2csc(n2)-c2ccc(-c3nc(C4=NC(C(=O)N5CCCC5C(=O)NCCCN(C)C)CO4)cs3)nc2-c2csc(n2)-c2csc(n2)C(C(O)c2ccccc2)NC(=O)CNC(=O)c2nc(sc2COC)C(C(C)C)NC(=O)c2nc1sc2C (mixture of isomers) [Compound 4]	0.06	4	0.5	4	0.25	–
CNC(=O)CC1NC(=O)c2csc(n2)-c2ccc(-c3nc(C4=NC(C(=O)N5CCCC5C(=O)N(C)CCN(C)C)CO4)cs3)nc2-c2csc(n2)-c2csc(n2)C(C(O)c2ccccc2)NC(=O)CNC(=O)c2nc(sc2COC)C(C(C)C)NC(=O)c2nc1sc2C (mixture of isomers) [Compound 5]	0.06	–	0.25	1	0.25	128
CNC(=O)CC1NC(=O)c2csc(n2)-c2ccc(-c3nc(C4=NC(C(=O)N5CCCC5C(=O)NCCN(C)C)CO4)cs3)nc2-c2csc(n2)-c2csc(n2)C(C(O)c2ccccc2)NC(=O)CNC(=O)c2nc(sc2COC)C(C(C)C)NC(=O)c2nc1sc2C (mixture of isomers) [Compound 7]	0.06	4	0.5	1	0.13	–
CCN(CCN(C)C)C(=O)C1CCCN1C(=O)C1COC(c2csc(-c3ccc4c(n3)-c3csc(n3)-c3csc(n3)C(C(O)c3ccccc3)NC(=O)CNC(=O)c3nc(sc3COC)C(C(C)C)NC(=O)c3nc(sc3C)C(CC(=O)NC)NC(=O)c3csc-4n3)n2)=N1 (mixture of isomers) [Compound 8]	0.06	8	0.5	4	0.25	–
CCN(CC)CCN(CC)C(=O)C1CCCN1C(=O)C1COC(c2csc(-c3ccc4c(n3)-c3csc(n3)-c3csc(n3)C(C(O)c3ccccc3)NC(=O)CNC(=O)c3nc(sc3COC)C(C(C)C)NC(=O)c3nc(sc3C)C(CC(=O)NC)NC(=O)c3csc-4n3)n2)=N1 (mixture of isomers) [Compound 9]	0.06	8	2	8	0.5	–
CNC(=O)CC1NC(=O)c2csc(n2)-c2ccc(-c3nc(C4=NC(C(=O)N5CCCC5C(=O)NCCN(C(C)C)C(C)C)CO4)cs3)nc2-c2csc(n2)-c2csc(n2)C(C(O)c2ccccc2)NC(=O)CNC(=O)c2nc(sc2COC)C(C(C)C)NC(=O)c2nc1sc2C (mixture of isomers) [Compound 11]	0.06	4	0.5	4	0.25	–
CNC(=O)CC1NC(=O)c2csc(n2)-c2ccc(-c3nc(C4=NC(C(=O)N5CCCC5C(=O)N(C)CC(=O)N(C)CCN(C)C)CO4)cs3)nc2-c2csc(n2)-c2csc(n2)C(C(O)c2ccccc2)NC(=O)CNC(=O)c2nc(sc2COC)C(C(C)C)NC(=O)c2nc1sc2C (mixture of isomers) [Compound 13]	0.13	8	1	4	0.5	–
CNC(=O)CC1NC(=O)c2csc(n2)-c2ccc(-c3nc(C4=NC(C(=O)N5CCCC5C(=O)NC(C)C(=O)N(C)CCN(C)C)CO4)cs3)nc2-c2csc(n2)-c2csc(n2)C(C(O)c2ccccc2)NC(=O)CNC(=O)c2nc(sc2COC)C(C(C)C)NC(=O)c2nc1sc2C (mixture of isomers) [Compound 14]	0.13	4	0.25	2	0.13	–
CNC(=O)CC1NC(=O)c2csc(n2)-c2ccc(-c3nc(C4=NC(C(=O)N5CCCC5C(=O)N(C)CCN(C)CCN(C)C)CO4)cs3)nc2-c2csc(n2)-c2csc(n2)C(C(O)c2ccccc2)NC(=O)CNC(=O)c2nc(sc2COC)C(C(C)C)NC(=O)c2nc1sc2C (mixture of isomers) [Compound 15]	0.06	16	2	8	1	–
CNC(=O)CC1NC(=O)c2csc(n2)-c2ccc(-c3nc(C4=NC(C(=O)N5CCCC5C(=O)N5CCN(CCCN(C)C)CC5)CO4)cs3)nc2-c2csc(n2)-c2csc(n2)C(C(O)c2ccccc2)NC(=O)CNC(=O)c2nc(sc2COC)C(C(C)C)NC(=O)c2nc1sc2C (mixture of isomers) [Compound 16]	0.13	8	1	4	0.5	–
CNC(=O)CC1NC(=O)c2csc(n2)-c2ccc(-c3nc(C4=NC(C(=O)N5CCCC5C(=O)N(C)CCN5CCN(C)CC5)CO4)cs3)nc2-c2csc(n2)-c2csc(n2)C(C(O)c2ccccc2)NC(=O)CNC(=O)c2nc(sc2COC)C(C(C)C)NC(=O)c2nc1sc2C (mixture of isomers) [Compound 17]	0.06	8	0.5	4	0.5	–
CNC(=O)CC1NC(=O)c2csc(n2)-c2ccc(-c3nc(C4=NC(C(=O)N5CCCC5C(=O)N(C)CCN5CCN(CCO)CC5)CO4)cs3)nc2-c2csc(n2)-c2csc(n2)C(C(O)c2ccccc2)NC(=O)CNC(=O)c2nc(sc2COC)C(C(C)C)NC(=O)c2nc1sc2C (mixture of isomers) [Compound 18]	0.06	8	2	8	0.5	–
CNC(=O)CC1NC(=O)c2csc(n2)-c2ccc(-c3nc(C4=NC(C(=O)N5CCCC5C(=O)N5CCN(CCN6CCOCC6)CC5)CO4)cs3)nc2-c2csc(n2)-c2csc(n2)C(C(O)c2ccccc2)NC(=O)CNC(=O)c2nc(sc2COC)C(C(C)C)NC(=O)c2nc1sc2C (mixture of isomers) [Compound 19]	0.06	16	2	0.5	0.25	–
CNC(=O)CC1NC(=O)c2csc(n2)-c2ccc(-c3nc(C4=NC(C(=O)N5CCCC5C(=O)N5CCCC5CN(C)CCN(C)C)CO4)cs3)nc2-c2csc(n2)-c2csc(n2)C(C(O)c2ccccc2)NC(=O)CNC(=O)c2nc(sc2COC)C(C(C)C)NC(=O)c2nc1sc2C (mixture of isomers) [Compound 20]	0.13	8	1	4	0.5	–
